According to article PMC12858467, “In vitro toxicokinetics and metabolic profiling of methoxycathinones and methylthiocathinones using human liver systems and hyphenated mass spectrometry” (Archives of Toxicology, 2025):

Legend:
Format in all cases: in vitro ADME
Conditions in all cases: 30 min, 37 °C
[1] = biological target: T1, CYP2B6 (Homo sapiens, UniProt P20813); test: Monooxygenases activity screening, CYP2B6; design: key: +, detected; -, not detected
T1 construct: purchased Discovery Life Sciences (Huntsville, LA, USA); host or cells: baculovirus-infected insect cells (microsomes, Supersomes)
T1 sequence (P20813 1-491): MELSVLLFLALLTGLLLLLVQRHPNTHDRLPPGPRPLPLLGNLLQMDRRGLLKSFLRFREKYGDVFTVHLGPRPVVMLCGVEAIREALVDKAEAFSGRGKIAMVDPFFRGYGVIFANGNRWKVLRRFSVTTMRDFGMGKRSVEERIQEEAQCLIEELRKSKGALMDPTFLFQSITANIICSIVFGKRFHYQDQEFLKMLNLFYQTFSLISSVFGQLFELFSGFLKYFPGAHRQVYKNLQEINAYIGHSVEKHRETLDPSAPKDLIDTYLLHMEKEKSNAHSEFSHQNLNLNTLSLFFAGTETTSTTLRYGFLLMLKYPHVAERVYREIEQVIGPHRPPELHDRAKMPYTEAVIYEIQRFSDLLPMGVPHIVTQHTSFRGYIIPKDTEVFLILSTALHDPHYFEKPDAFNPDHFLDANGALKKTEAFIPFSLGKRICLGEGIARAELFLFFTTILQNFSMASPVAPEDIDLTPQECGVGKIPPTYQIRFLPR
Protocol: (§1) For incubations with CYP2A6 or CYP2C9, phosphate buffer was replaced with 90 mM Tris buffer, according to the manufacturer’s guideline. […] All incubations were done in duplicate and concentrations were fixed. Verapamil (25 µM) was incubated as a positive control.

[2] = biological target: T2, CYP3A4 (Homo sapiens, UniProt P08684); test: Monooxygenases activity screening, CYP3A4; design: key: +, detected; -, not detected
T2 construct: purchased Discovery Life Sciences (Huntsville, LA, USA); host or cells: baculovirus-infected insect cells (microsomes, Supersomes)
T2 sequence (P08684 whole entry): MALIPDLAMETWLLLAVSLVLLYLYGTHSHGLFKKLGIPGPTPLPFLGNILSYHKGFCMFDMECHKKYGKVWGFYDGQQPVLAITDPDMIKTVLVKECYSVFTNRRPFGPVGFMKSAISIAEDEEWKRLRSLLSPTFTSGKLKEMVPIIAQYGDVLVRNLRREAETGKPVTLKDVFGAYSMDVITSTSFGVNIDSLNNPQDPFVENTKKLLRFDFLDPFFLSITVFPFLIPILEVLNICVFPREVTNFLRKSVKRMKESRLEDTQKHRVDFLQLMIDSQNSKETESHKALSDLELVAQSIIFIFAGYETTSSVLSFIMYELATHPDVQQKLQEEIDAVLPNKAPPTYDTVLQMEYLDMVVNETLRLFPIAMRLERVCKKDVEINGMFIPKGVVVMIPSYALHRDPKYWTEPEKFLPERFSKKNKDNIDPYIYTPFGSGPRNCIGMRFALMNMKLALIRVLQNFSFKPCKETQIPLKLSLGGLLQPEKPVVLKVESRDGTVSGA
Protocol: as §1

[3] = biological target: T3, CYP2E1 (Homo sapiens, UniProt P05181); test: Monooxygenases activity screening, CYP2E1; design: key: +, detected; -, not detected
T3 construct: purchased Discovery Life Sciences (Huntsville, LA, USA); host or cells: baculovirus-infected insect cells (microsomes, Supersomes)
T3 sequence (P05181 whole entry): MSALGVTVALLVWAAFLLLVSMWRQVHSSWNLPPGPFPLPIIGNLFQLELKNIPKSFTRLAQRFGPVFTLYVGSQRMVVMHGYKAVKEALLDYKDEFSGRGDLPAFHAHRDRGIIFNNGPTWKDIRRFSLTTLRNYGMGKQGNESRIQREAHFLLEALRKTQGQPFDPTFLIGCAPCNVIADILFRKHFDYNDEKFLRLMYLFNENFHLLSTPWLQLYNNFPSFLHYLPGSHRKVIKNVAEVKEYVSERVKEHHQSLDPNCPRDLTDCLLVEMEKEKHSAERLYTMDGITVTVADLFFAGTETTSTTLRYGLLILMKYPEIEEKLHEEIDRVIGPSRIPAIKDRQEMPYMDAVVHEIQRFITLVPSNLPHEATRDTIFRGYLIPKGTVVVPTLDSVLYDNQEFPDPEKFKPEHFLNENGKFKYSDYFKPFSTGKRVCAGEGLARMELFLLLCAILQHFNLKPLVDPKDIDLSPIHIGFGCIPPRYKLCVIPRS
Protocol: as §1

[4] = biological target: T4, CYP2C19 (Homo sapiens, UniProt P33261); test: Monooxygenases activity screening, CYP2C19; design: key: +, detected; -, not detected
T4 construct: purchased Discovery Life Sciences (Huntsville, LA, USA); host or cells: baculovirus-infected insect cells (microsomes, Supersomes)
T4 sequence (P33261 whole entry): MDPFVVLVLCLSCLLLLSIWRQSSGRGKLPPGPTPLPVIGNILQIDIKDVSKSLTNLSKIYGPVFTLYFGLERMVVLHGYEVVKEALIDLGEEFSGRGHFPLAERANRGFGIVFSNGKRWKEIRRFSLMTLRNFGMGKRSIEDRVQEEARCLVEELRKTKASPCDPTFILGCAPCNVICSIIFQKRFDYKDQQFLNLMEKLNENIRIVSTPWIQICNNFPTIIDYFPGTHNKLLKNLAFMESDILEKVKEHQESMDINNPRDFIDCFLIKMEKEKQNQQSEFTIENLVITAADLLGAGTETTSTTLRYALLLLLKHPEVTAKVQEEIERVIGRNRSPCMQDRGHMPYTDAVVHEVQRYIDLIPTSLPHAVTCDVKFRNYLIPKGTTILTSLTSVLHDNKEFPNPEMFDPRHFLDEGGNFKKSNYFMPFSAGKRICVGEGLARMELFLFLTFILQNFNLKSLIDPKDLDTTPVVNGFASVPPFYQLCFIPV
Protocol: as §1

[5] = biological target: T5, flavin-containing monooxygenase 3 (FMO3) (Homo sapiens, UniProt P31513); test: Monooxygenases activity screening, FMO3; design: key: +, detected; -, not detected
T5 construct: purchased Discovery Life Sciences (Huntsville, LA, USA); host or cells: baculovirus-infected insect cells (microsomes, Supersomes)
T5 sequence (P31513 1-532): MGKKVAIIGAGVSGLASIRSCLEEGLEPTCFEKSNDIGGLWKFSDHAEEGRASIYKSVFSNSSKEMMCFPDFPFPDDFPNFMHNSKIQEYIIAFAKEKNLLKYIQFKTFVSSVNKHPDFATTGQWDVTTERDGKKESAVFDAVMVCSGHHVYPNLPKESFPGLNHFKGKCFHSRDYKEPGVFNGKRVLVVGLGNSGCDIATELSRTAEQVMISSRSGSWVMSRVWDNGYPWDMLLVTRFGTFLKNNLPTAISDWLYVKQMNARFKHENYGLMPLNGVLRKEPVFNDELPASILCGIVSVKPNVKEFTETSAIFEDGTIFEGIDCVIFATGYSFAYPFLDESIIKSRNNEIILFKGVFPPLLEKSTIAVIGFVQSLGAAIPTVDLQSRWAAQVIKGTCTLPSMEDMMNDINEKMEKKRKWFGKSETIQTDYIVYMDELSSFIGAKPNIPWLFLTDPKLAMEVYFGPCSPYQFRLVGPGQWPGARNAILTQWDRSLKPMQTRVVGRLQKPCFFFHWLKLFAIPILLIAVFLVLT
Protocol: as §1

[6] = biological target: T6, CYP2A6 (Homo sapiens, UniProt P11509); test: Monooxygenases activity screening, CYP2A6; design: key: +, detected; -, not detected
T6 construct: purchased Discovery Life Sciences (Huntsville, LA, USA); host or cells: baculovirus-infected insect cells (microsomes, Supersomes)
T6 sequence (P11509 1-494): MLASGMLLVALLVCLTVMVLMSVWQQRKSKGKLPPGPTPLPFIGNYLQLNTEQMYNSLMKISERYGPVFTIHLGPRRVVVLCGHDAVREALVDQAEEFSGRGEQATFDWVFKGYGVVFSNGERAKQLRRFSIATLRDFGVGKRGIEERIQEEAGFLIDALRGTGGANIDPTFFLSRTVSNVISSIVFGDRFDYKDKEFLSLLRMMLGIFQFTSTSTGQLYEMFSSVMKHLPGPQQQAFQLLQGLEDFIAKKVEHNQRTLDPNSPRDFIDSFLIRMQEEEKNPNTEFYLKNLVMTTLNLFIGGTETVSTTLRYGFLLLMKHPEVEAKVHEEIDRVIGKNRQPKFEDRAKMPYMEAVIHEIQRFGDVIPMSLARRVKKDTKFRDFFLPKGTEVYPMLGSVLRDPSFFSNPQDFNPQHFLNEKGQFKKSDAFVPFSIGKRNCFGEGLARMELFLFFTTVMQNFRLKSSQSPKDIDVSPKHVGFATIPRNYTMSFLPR
Protocol: as §1

[7] = biological target: T7, CYP3A5 (Homo sapiens, UniProt P20815); test: Monooxygenases activity screening, CYP3A5; design: key: +, detected; -, not detected
T7 construct: purchased Discovery Life Sciences (Huntsville, LA, USA); host or cells: baculovirus-infected insect cells (microsomes, Supersomes)
T7 sequence (P20815 whole entry): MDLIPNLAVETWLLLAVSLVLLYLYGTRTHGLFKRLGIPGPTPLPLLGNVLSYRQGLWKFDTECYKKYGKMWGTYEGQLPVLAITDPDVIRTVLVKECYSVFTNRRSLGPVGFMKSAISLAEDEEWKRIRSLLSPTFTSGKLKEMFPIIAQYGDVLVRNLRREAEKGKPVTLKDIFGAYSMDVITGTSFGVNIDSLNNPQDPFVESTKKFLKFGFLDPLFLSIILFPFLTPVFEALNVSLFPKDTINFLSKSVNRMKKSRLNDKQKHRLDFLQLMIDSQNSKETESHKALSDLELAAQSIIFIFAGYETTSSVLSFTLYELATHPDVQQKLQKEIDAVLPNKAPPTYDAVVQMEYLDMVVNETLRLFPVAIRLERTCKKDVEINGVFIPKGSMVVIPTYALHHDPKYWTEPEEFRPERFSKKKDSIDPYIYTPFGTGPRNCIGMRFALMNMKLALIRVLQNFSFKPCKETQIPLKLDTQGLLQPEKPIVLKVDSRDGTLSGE
Protocol: as §1

[8] = biological target: T8, CYP2D6 (Homo sapiens, UniProt P10635); test: Monooxygenases activity screening, CYP2D6; design: key to one-step metabolite detected in CYP2D6 incubation: +, detected; -, not detected
T8 construct: purchased Discovery Life Sciences (Huntsville, LA, USA); host or cells: baculovirus-infected insect cells (microsomes, Supersomes)
T8 sequence (P10635 whole entry): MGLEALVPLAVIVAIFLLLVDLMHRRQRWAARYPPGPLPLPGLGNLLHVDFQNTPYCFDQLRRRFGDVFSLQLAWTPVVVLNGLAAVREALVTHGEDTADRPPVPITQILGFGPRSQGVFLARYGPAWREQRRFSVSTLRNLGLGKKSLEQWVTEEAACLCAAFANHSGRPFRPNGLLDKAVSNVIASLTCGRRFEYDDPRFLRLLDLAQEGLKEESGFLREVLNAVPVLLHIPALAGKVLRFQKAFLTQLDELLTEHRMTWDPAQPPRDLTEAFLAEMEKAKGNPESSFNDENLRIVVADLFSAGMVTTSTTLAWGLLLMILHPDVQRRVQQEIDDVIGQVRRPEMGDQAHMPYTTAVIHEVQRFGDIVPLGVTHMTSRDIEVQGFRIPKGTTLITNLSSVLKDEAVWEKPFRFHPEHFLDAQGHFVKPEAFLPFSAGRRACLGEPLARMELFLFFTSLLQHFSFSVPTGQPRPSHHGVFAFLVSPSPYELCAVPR
Protocol: as §1

[9] = biological target: T9, CYP2C8 (Homo sapiens, UniProt P10632); test: Monooxygenases activity screening, CYP2C8; design: key: +, detected; -, not detected
T9 construct: purchased Discovery Life Sciences (Huntsville, LA, USA); host or cells: baculovirus-infected insect cells (microsomes, Supersomes)
T9 sequence (P10632 1-490): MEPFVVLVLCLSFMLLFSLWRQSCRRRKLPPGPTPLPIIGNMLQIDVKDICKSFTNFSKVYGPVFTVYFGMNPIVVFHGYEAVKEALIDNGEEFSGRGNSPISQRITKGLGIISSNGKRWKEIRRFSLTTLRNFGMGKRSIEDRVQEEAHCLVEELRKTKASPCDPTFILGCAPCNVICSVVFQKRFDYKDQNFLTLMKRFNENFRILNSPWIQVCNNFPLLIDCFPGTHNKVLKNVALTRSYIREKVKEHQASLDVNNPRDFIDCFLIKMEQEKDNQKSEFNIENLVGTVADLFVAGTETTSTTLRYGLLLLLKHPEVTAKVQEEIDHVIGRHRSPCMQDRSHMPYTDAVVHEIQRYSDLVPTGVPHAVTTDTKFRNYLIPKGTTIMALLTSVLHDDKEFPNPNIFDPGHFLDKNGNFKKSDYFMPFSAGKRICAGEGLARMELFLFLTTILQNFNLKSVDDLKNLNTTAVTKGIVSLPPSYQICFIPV
Protocol: as §1

[10] = biological target: T10, CYP1A2 (Homo sapiens, UniProt P05177); test: Monooxygenases activity screening, CYP1A2; design: key: +, detected; -, not detected
T10 construct: purchased Discovery Life Sciences (Huntsville, LA, USA); host or cells: baculovirus-infected insect cells (microsomes, Supersomes)
T10 sequence (P05177 1-516): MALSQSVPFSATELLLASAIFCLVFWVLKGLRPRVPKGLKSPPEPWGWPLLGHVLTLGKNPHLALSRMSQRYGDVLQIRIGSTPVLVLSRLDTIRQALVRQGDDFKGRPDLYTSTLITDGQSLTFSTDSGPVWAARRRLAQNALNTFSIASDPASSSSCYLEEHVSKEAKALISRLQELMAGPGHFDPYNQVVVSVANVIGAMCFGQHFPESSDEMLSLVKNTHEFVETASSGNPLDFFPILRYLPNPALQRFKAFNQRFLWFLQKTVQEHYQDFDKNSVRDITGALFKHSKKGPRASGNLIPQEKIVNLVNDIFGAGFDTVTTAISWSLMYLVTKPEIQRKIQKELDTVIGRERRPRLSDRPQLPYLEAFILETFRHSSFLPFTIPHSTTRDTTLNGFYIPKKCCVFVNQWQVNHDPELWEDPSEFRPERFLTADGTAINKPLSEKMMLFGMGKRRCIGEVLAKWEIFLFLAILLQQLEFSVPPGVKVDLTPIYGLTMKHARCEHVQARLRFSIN
Protocol: as §1

[11] = biological target: T11, CYP2C9 (Homo sapiens, UniProt P11712); test: Monooxygenases activity screening, CYP2C9; design: key: +, detected; -, not detected
T11 construct: purchased Discovery Life Sciences (Huntsville, LA, USA); host or cells: baculovirus-infected insect cells (microsomes, Supersomes)
T11 sequence (P11712 whole entry): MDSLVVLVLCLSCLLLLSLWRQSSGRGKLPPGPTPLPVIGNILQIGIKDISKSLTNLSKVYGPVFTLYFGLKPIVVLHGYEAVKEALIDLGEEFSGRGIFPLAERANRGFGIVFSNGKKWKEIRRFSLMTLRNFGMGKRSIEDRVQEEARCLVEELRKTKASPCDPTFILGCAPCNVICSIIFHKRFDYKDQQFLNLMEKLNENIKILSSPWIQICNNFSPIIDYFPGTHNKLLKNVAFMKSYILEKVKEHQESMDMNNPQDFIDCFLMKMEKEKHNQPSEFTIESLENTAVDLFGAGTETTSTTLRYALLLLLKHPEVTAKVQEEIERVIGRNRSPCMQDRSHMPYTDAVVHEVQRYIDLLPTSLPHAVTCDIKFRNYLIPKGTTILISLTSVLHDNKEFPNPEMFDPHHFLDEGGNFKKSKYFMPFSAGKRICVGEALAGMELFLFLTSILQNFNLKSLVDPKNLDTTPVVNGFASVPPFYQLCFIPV
Protocol: as §1

[12] = substrate 4MeO-NE-BP 25 µM, Table S3.1
[13] = substrate 4MeO-αP-BP 25 µM, Table S3.2

SMILES | one-step metabolite detected in CYP2B6 incubation [1, 12] | one-step metabolite detected in CYP3A4 incubation [2, 12] | one-step metabolite detected in CYP2E1 incubation [3, 12] | one-step metabolite detected in CYP2C19 incubation [4, 12] | one-step metabolite detected in FMO3 incubation [5, 12] | one-step metabolite detected in CYP2A6 incubation [6, 12] | one-step metabolite detected in CYP3A5 incubation [7, 12] | one-step metabolite detected in CYP2D6 incubation [8, 12] | one-step metabolite detected in CYP2C8 incubation [9, 12] | one-step metabolite detected in CYP1A2 incubation [10, 12] | one-step metabolite detected in CYP2C9 incubation [11, 12] | further results
CCNC(CC)C(=O)c1ccc(O)cc1 (centres unmarked) [MO1.1] | - | - | - | + | - | - | - | + | - | + | - | 
CCC(N)C(=O)c1ccc(OC)cc1 (centres unmarked) [MO1.3] | + | + | - | + | - | - | - | - | - | - | - | 
CCC(C(=O)c1ccc(OC)cc1)N(O)CC (centres unmarked) [MO1.4] | + | + | - | + | + | - | + | + | + | + | - | 
CCC(C(=O)c1ccc(O)cc1)N1CCCC1 (centres unmarked) [MO2.2] |  |  |  |  |  |  |  |  |  |  |  | one-step metabolite detected in CYP2B6 incubation [1, 13]: -; one-step metabolite detected in CYP3A4 incubation [2, 13]: -; one-step metabolite detected in CYP2E1 incubation [3, 13]: -; one-step metabolite detected in CYP2C19 incubation [4, 13]: +; one-step metabolite detected in FMO3 incubation [5, 13]: -; one-step metabolite detected in CYP2A6 incubation [6, 13]: -; one-step metabolite detected in CYP3A5 incubation [7, 13]: -; one-step metabolite detected in CYP2D6 incubation [8, 13]: +; one-step metabolite detected in CYP2C8 incubation [9, 13]: -; one-step metabolite detected in CYP1A2 incubation [10, 13]: +; one-step metabolite detected in CYP2C9 incubation [11, 13]: -
